Measurements: patent US8865734B2 (priority 2010, dated 2014)
≈ marks a conversion by molar mass, not a printed value.

How the values were obtained:
[1] = tested on: in vitro grown Mycobacteria (M. tuberculosis); test: QUM: Quantification of in vitro grown Mycobacteria (in vitro growth fluorescence assay); type: cell-based; details: Mycobacterium tuberculosis; MIC, 80% bacterial growth inhibition; in vitro growth; read-out: QUM
From the text: (§1) A 120,000 small molecule compound library was screened using a validated phenotypic cell-based assay (WO2010003533A2). Active compounds from the primary screen were confirmed via dose response in the intracellular (QIM) assay and an in vitro (QUM) assay, wherein the abbreviation “QIM” stands for Quantification of Intracellular Mycobacteria and the abbreviation “QUM” stands for Quantification of in vitro grown Mycobacteria. […] The MIC is the minimum concentration of compound required to obtain 80% bacterial growth inhibition.
(§2) The imidazopyridine compounds (scaffolds Ia and Ib; see Table 1) underwent derivatization according to the methods outlined below (Schemes 1-13). Resulting derivatives were examined for inhibitory activity (MIC) using the assays described above (Example 1) and the results are summarized in Table 1.

[2] = tested on: M. tuberculosis inside the host macrophage; test: QIM: Quantification of Intracellular Mycobacteria (intracellular growth assay, phenotypic cell-based); details: Mycobacterium tuberculosis; MIC, 80% bacterial growth inhibition; intracellular growth; read-out: QIM
From the text: Accordingly, a phenotypic cell-based assay, suitable for high throughput screening, which allows for the search of compounds that would prevent M. tuberculosis multiplication inside the host macrophage was utilized (WO2010003533A2), overcoming many of the numerous and burdensome steps involved in previous methodologies (Arain et al., 1996).
as §1, §2

Compound: CCc1nc2cc(Cl)ccn2c1C(=O)NCc1ccc(-c2cccc(C#N)c2)cc1 [Compound 128, 7-Chloro-N-((3′-cyanobiphenyl-4-yl)methyl)-2-ethylimidazo[1,2-a]pyridine-3-carboxamide]
- MIC [1]: > 20 µM
- MIC [2]: < 1 µM

Compound: Cc1nc2ccccn2c1C(=O)Nc1ccc(OCc2ccccc2)cc1 [Compound 7, N-(4-(Benzyloxy)phenyl)-2-methylimidazo[1,2-a]pyridine-3-carboxamide]
- MIC [1]: > 20 µM
- MIC [2]: > 20 µM

Compound: Cc1nc2cc(Cl)ccn2c1C(=O)NCc1ccc(-c2ccccc2)cc1 [Compound 45]
- MIC [1]: < 1 µM
- MIC [2]: < 1 µM

Compound: CCc1nc2cc(Cl)ccn2c1C(=O)NCc1ccc(-c2ccc(C)cc2)cc1 [Compound 98, 7-Chloro-2-ethyl-N-((4′-methylbiphenyl-4-yl)methyl)imidazo[1,2-a]pyridine-3-carboxamide]
- MIC [1]: < 1 µM
- MIC [2]: < 1 µM

Compound: Cc1nc2c(F)cccn2c1C(=O)NCc1ccccc1 [Compound 39, N-Benzyl-8-fluoro-2-methylimidazo[1,2-a]pyridine-3-carboxamide]
- MIC [1]: 1 to 20 µM (≈ 0.283 to 5.67 µg/mL)
- MIC [2]: 1 to 20 µM (≈ 0.283 to 5.67 µg/mL)

Compound: CCc1nc2cc(Cl)ccn2c1C(=O)NCc1ccc(Cl)cc1 [Compound 87, 7-Chloro-N-(4-chlorobenzyl)-2-ethylimidazo[1,2-a]pyridine-3-carboxamide]
- MIC [1]: < 1 µM
- MIC [2]: < 1 µM

Compound: CCc1nc2ccccn2c1C(=O)NCc1ccc(Oc2ccc(OC(F)(F)F)cc2)cc1 [Compound 192, 2-Ethyl-N-(4-(4-(trifluoromethoxy)phenoxy)benzyl)imidazo[1,2-a]pyridine-3-carboxamide]
- MIC [1]: < 1 µM
- MIC [2]: < 1 µM

Compound: CCc1nc2ccc(Cl)cn2c1C(=O)NCc1ccc(-c2ccc(C#N)cc2C)cc1 [Compound 131, 6-Chloro-N-((4′-cyano-2′-methylbiphenyl-4-yl)methyl)-2-ethylimidazo[1,2-a]pyridine-3-carboxamide]
- MIC [1]: < 1 µM
- MIC [2]: < 1 µM

Compound: CCCc1nc2ccccn2c1C(=O)NCc1ccccc1 [Compound 48, N-Benzyl-2-propylimidazo[1,2-a]pyridine-3-carboxamide]
- MIC [1]: 1 to 20 µM (≈ 0.293 to 5.87 µg/mL)
- MIC [2]: > 20 µM

Compound: CCc1nc2ccc(Cl)cn2c1C(=O)NCc1ccc(N2CCCCC2)cc1 [Compound 79, 6-Chloro-2-ethyl-N-(4-(piperidin-1-yl)benzyl)imidazo[1,2-a]pyridine-3-carboxamide]
- MIC [1]: < 1 µM
- MIC [2]: < 1 µM

Compound: CCOC(=O)c1c(C)nc2cc(-c3ccccc3)ccn12 [Compound 2, Ethyl 2-methyl-7-phenylimidazo[1,2-a]pyridine-3-carboxylate]
- MIC [1]: > 20 µM
- MIC [2]: > 20 µM

Compound: CCc1nc2cc(Cl)c(Cl)cn2c1C(=O)NCc1ccc(OC(F)(F)F)cc1 [Compound 153, 6,7-Dichloro-2-ethyl-N-(4-(trifluoromethoxy)benzyl)imidazo[1,2-a]pyridine-3-carboxamide]
- MIC [1]: 1 to 20 µM (≈ 0.432 to 8.64 µg/mL)
- MIC [2]: > 20 µM

Compound: Cc1nc2ccc(F)cn2c1C(=O)NCc1ccccc1 [Compound 34, N-Benzyl-6-fluoro-2-methylimidazo[1,2-a]pyridine-3-carboxamide]
- MIC [1]: 1 to 20 µM (≈ 0.283 to 5.67 µg/mL)
- MIC [2]: 1 to 20 µM (≈ 0.283 to 5.67 µg/mL)

Compound: Cc1nc2ccccn2c1C(=O)NCCOCc1ccccc1 [Compound 24, N-(2-(Benzyloxy)ethyl)-2-methylimidazo[1,2-a]pyridine-3-carboxamide]
- MIC [1]: > 20 µM
- MIC [2]: > 20 µM

Compound: CCc1nc2ccc(C)cn2c1C(=O)NCc1ccc2ccn(C)c2c1 [Compound 67, 2-Ethyl-6-methyl-N-((1-methyl-1H-indol-6-yl)methyl)imidazo[1,2-a]pyridine-3-carboxamide]
- MIC [1]: < 1 µM
- MIC [2]: < 1 µM

Compound: Cc1nc2ccccn2c1C(=O)NCC1CCNCC1 [Compound 20, 2-Methyl-N-(piperidin-4-ylmethyl)imidazo[1,2-a]pyridine-3-carboxamide]
- MIC [1]: > 20 µM
- MIC [2]: > 20 µM

Compound: CCc1nc2ccccn2c1C(=O)NCc1ccc(C(C)(C)C)cc1 [Compound 55, N-(4-tert-Butylbenzyl)-2-ethylimidazo[1,2-a]pyridine-3-carboxamide]
- MIC [1]: < 1 µM
- MIC [2]: < 1 µM

Compound: CCc1nc2ccc(Cl)cn2c1C(=O)NCc1ccc2oc(-c3ccc(OC(F)(F)F)cc3)nc2c1 [Compound 207, 6-Chloro-2-ethyl-N-((2-(4-(trifluoromethoxy)phenyl)benzo[d]oxazol-5-yl)methyl)imidazo[1,2-a]pyridine-3-carboxamide]
- MIC [1]: < 1 µM
- MIC [2]: < 1 µM

Compound: CCc1nc2ccc(Cl)cn2c1C(=O)NCc1ccc(N2CCCCC2C)cc1 (centres unmarked) [Compound 272, 6-chloro-2-ethyl-N-(4-(2-methylpiperidin-1-yl)benzyl)imidazo[1,2-a]pyridine-3-carboxamide]
- MIC [1]: < 1 µM
- MIC [2]: < 1 µM

Compound: Cc1nc2ccccn2c1C(=O)NCc1ccc(C(=O)O)cc1 [Compound 11, 4-((2-Methylimidazo[1,2-a]pyridine-3-carboxamido)methyl)benzoic acid]
- MIC [1]: > 20 µM
- MIC [2]: > 20 µM

Compound: CCc1nc2ccccn2c1C(=O)NCc1ccc2ccn(C)c2c1 [Compound 58, 2-Ethyl-N-((1-methyl-1H-indol-6-yl)methyl)imidazo[1,2-a]pyridine-3-carboxamide]
- MIC [1]: 1 to 20 µM (≈ 0.332 to 6.65 µg/mL)
- MIC [2]: 1 to 20 µM (≈ 0.332 to 6.65 µg/mL)

Compound: CCc1nc2cc(Cl)ccn2c1C(=O)NCc1ccc(-c2ccc(OC(F)(F)F)cc2)cc1 [Compound 119, 7-Chloro-2-ethyl-N-((4′-(trifluoromethoxy)biphenyl-4-yl)methyl)imidazo[1,2-a]pyridine-3-carboxamide]
- MIC [1]: < 1 µM
- MIC [2]: < 1 µM

Compound: CCc1nc2ccc(C(F)(F)F)cn2c1C(=O)NCc1ccc(N2CCC(Oc3ccc(OC(F)(F)F)cc3)CC2)cc1 [Compound 168, 2-Ethyl-N-(4-(4-(4-(trifluoromethoxy)phenoxy)piperidin-1-yl)benzyl)-6-(trifluoromethyl)imidazo[1,2-a]pyridine-3-carboxamide]
- MIC [1]: 1 to 20 µM (≈ 0.607 to 12.1 µg/mL)
- MIC [2]: 1 to 20 µM (≈ 0.607 to 12.1 µg/mL)

Compound: CCc1nc2cc([N+](=O)[O-])ccn2c1C(=O)NCc1ccc(OC(F)(F)F)cc1 [Compound 150, 2-Ethyl-7-nitro-N-(4-(trifluoromethoxy)benzyl)imidazo[1,2-a]pyridine-3-carboxamide]
- MIC [1]: > 20 µM
- MIC [2]: > 20 µM

Compound: Cc1nc2ccc(Cl)cn2c1C(=O)NCc1ccccc1 [Compound 29, N-Benzyl-6-chloro-2-methylimidazo[1,2-a]pyridine-3-carboxamide]
- MIC [1]: 1 to 20 µM (≈ 0.3 to 6 µg/mL)
- MIC [2]: 1 to 20 µM (≈ 0.3 to 6 µg/mL)

Compound: Cc1nc2ccccn2c1NC(=O)Cc1ccccc1 [Compound 26, N-(2-Methylimidazo[1,2-a]pyridin-3-yl)-2-phenylacetamide]
- MIC [1]: > 20 µM
- MIC [2]: > 20 µM

Compound: CCc1nc2ccccn2c1C(=O)NCc1ccc(OCC(C)C)cc1 [Compound 61, 2-Ethyl-N-(4-isobutoxybenzyl)imidazo[1,2-a]pyridine-3-carboxamide]
- MIC [1]: < 1 µM
- MIC [2]: < 1 µM

Compound: COC(=O)c1ccc(CNC(=O)c2c(C)nc3ccccn23)cc1 [Compound 10, Methyl 4-((2-me3thylimidazo[1,2-a]pyridine-3-carboxamido)methyl)benzoate]
- MIC [1]: 1 to 20 µM (≈ 0.323 to 6.47 µg/mL)
- MIC [2]: > 20 µM

Compound: CCc1nc2cc(Cl)ccn2c1C(=O)NCc1ccc(Oc2ccc(F)cc2)cc1 [Compound 188, 7-Chloro-2-ethyl-N-(4-(4-fluorophenoxy)benzyl)imidazo[1,2-a]pyridine-3-carboxamide]
- MIC [1]: < 1 µM
- MIC [2]: < 1 µM

Compound: CCc1nc2ccc(Cl)cn2c1C(=O)NCc1ccc(C(C)(C)C)cc1 [Compound 73]
- MIC [1]: < 1 µM
- MIC [2]: < 1 µM

Compound: CCc1nc2cc(Cl)ccn2c1C(=O)NCc1ccc2oc(-c3ccc(OC(F)(F)F)cc3)nc2c1 [Compound 208, 7-Chloro-2-ethyl-N-((2-(4-(trifluoromethoxy)phenyl)benzo[d]oxazol-5-yl)methyl)imidazo[1,2-a]pyridine-3-carboxamide]
- MIC [1]: < 1 µM
- MIC [2]: < 1 µM

Compound: CCc1nc2ccccn2c1C(=O)NCc1ccc(N2CCC(c3ccc(F)cc3)CC2)cc1 [Compound 285, 2-Ethyl-N-(4-(4-(4-fluorophenyl)piperidin-1-yl)benzyl)imidazo[1,2-a]pyridine-3-carboxamide]
- MIC [1]: < 1 µM

Compound: CCc1nc2ccc(Cl)cn2c1C(=O)NCc1ccc(N2CCC(C=O)CC2)cc1 [Compound 351, 6-Chloro-2-ethyl-N-(4-(4-formylpiperidin-1-yl)benzyl)imidazo[1,2-a]pyridine-3-carboxamide]
- MIC [1]: < 1 µM

Compound: CCc1nc2cc(Cl)ccn2c1C(=O)NCc1ccc(N2CCC(C=O)CC2)cc1 [Compound 352, 7-Chloro-2-ethyl-N-(4-(4-formylpiperidin-1-yl)benzyl)imidazo[1,2-a]pyridine-3-carboxamide]
- MIC [1]: < 1 µM

Compound: CCc1nc2ccc(C)cn2c1C(=O)NCc1ccc(N2CCOCC2)cc1 [Compound 219, 2-ethyl-6-methyl-N-(4-morpholinobenzyl)imidazo[1,2-a]pyridine-3-carboxamide]
- MIC [1]: < 1 µM

Compound: CCc1nc2cc(Cl)ccn2c1C(=O)NCc1ccc(N2CCC(OCc3ccc(F)cc3)CC2)cc1 [Compound 348, 7-Chloro-2-ethyl-N-(4-(4-(4-fluorobenzyloxy)piperidin-1-yl)benzyl)imidazo[1,2-a]pyridine-3-carboxamide]
- MIC [1]: 1 to 20 µM (≈ 0.521 to 10.4 µg/mL)

Compound: CCc1nc2ccc(Cl)cn2c1C(=O)NCc1ccc(N2CCC(c3ccc(Cl)cc3)CC2)cc1 [Compound 337, 6-Chloro-N-(4-(4-(4-chlorophenyl)piperidin-1-yl)benzyl)-2-ethylimidazo[1,2-a]pyridine-3-carboxamide]
- MIC [1]: < 1 µM
